Laboratory results reported in US7097856B2, “Dendrimeric support or carrier macromolecule” (priority 2000, dated 2006).

Tested on: complementary strand of DNA
Assay: Thermal denaturation of DNA-dendrimer conjugate hybridized with complementary strand
Type: binding

With “native: unmodified single stranded DNA, sequence TTC TCT TCA GTT CAC A (5′ to 3′) (DNA TTCTCTTCAGTTCACA; unmodified DNA)” the “Tm (thermal denaturation, melting temperature)” value was 52.3 °C.
